Source: patent US20240358731A1, “SUMO PATHWAY AS AN OXYGEN SENSOR RELEVANT TO THE PATHOPHYSIOLOGY OF PULMONARY ARTERY HYPERTENSION AND CARDIAC ARRHYTHMIA” (Northeastern University, priority 2023, published 2024)
“Also recorded” adds a separate entry of the source.

How the values were obtained:
Kir2.4 channels = assay: Whole-cell patch-clamp of Kir2.4 currents in transfected HEK293T cells under acute hypoxia; format: cell-based, human
Experimental: Hypoxia diminishes Kir2.4 activity in a TAK981 sensitive manner. HEK293T cells were transiently transfected with plasmid DNA for Kir2.4 channels. Inward rectifying currents were elicited in response to a high [K]^+ (140 mM) buffer using a −80 mV to +80 mV ramp protocol. Following stabilization in the high K^+ buffer, the cells were subjected to a hypoxic (2% O2) perfusate. Acute hypoxia evoked a ˜30% decrease in Kir2.4 currents. Recordings were terminated with the perfusion of 10 mM Ba^2+ (FIGS. 3A, 3B).
Next, we repeated the experiment using that were preincubated with 100 nM TAK981 for one hour. We observed that the hypoxic decrease in Kir2.4 currents was abolished in cells pre-treated with TAK981 (FIGS. 3C, 3D).

[1] = molecular target: T1, SUMO activating enzyme (SAE) (Homo sapiens, UniProt Q9UBE0+Q9UBT2); conditions: cited from earlier work
T1 sequence (Q9UBE0 1-346): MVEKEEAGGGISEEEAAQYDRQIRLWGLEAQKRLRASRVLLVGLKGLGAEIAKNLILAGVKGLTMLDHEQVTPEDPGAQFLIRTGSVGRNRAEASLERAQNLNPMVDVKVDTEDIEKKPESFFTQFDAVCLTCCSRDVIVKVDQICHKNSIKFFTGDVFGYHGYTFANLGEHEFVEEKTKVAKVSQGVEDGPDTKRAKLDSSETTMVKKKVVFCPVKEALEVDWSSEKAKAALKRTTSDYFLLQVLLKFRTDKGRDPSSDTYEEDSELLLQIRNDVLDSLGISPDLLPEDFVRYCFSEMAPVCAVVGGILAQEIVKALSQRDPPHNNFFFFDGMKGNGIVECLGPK
T1 sequence (Q9UBT2 1-640): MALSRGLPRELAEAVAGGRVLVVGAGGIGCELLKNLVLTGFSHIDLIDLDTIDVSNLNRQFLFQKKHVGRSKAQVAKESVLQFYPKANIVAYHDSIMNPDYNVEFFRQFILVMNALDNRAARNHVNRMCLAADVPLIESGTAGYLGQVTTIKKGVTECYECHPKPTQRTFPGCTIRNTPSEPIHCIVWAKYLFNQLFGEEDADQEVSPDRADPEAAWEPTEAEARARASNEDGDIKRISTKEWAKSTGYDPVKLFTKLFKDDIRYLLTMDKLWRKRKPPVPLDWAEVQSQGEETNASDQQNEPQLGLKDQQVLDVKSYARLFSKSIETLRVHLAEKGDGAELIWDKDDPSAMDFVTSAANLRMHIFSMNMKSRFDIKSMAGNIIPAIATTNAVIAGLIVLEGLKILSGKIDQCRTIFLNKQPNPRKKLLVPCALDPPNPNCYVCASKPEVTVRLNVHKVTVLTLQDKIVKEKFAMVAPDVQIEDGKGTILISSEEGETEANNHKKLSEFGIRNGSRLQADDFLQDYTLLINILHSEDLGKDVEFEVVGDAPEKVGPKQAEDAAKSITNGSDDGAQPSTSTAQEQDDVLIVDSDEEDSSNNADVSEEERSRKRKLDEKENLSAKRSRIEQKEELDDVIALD

Kir2.1 channels = molecular target: T2, Kir2.1 channels (Homo sapiens, UniProt P63252); assay: Whole-cell patch-clamp of heterologous Kir2.1 channels in HEK293T cells under hypoxia; format: cell-based; conditions: agent in recording pipette (SENP1 2 μM)
T2 construct: expressed in transfected cells; host or cells: HEK293T
T2 sequence (P63252 1-427): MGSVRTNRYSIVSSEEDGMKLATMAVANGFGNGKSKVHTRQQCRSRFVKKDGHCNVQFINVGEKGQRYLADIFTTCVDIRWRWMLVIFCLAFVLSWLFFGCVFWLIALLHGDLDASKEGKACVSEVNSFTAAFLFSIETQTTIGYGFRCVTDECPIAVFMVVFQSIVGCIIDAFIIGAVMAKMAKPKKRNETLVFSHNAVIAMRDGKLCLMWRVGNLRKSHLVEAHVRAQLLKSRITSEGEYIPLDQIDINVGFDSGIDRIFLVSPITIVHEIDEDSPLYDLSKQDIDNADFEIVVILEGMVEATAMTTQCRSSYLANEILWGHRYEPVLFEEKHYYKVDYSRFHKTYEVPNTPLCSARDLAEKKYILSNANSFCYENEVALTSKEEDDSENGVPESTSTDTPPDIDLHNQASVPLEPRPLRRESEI
Experimental: To knockdown Kir2.1 expression, RVCMs were transduced with lentiviral particles carrying cGFP and shRNA targeting KCNJ2-mRNA for the channel. Kir2.1 knockdown cells (Kir2.1kd-CMs) were identified by expression of cGFP. Cells were studied with control pipette solution, or with pipette solutions containing purified SUMO1 (1 μM) or SENP1 (2 μM). Where indicated, the control pipette solution contained diC8 PIP2. Paired patch-clamp data were analyzed by Students t-test; ***, P<0.01. […] Kir2.1kd-CMs are identified by expression of GFP (inset, scale bar=10 μm). […] The arrow indicates the change in current-magnitude between exposure to ambient O2 and 2% O2 in the same cell. Right, Concentration-response curve showing that including diC8-PIP2 in the pipette opposes hypoxic-inhibition of IK1 in control RVCMs and RVCMs expressing the scrambled shRNA. The hypoxic-response is diminished in Kir2.1kd-CMs. Data are mean±s.d. for 7-8 cells per condition. […] Current inhibition is diminished when SENP1 is included in the recording pipette and is not observed when SUMO-insensitive Kir2.1-K49Q channels are studied. Data are mean±s.d. for 6 cells per condition.
Hypoxic-inhibition of IK1/Kir2.1 is reduced by diC8-PIP2 in a concentration-dependent manner. We have shown that adding the exogenous, soluble PIP2 analog diC8-PIP2 into the patch-pipette opposes hypoxic-inhibition of IK1 (FIG. 4). […]

| Molecule | effect on hypoxic decrease in Kir2.4 currents (Kir2.4 channels; preincubated with 100 nM for one hour, 2% O2) | tolerability of pretreatment in cells (Kir2.4 channels; pretreating cells) | SAE / SUMO E1 inhibition [1] | selectivity [1] | effect on hypoxic inhibition of Kir2.1 channels (Kir2.1 channels) |
| --- | --- | --- | --- | --- | --- |
| Cc1sc(C(=O)c2cncnc2N[C@@H]2C[C@H](COS(N)(=O)=O)[C@@H](O)C2)cc1[C@@H]1NCCc2ccc(Cl)cc21 [TAK981, Subasumstat] | abolished; also recorded: precludes hypoxic inhibition of Kir2 currents | tolerated by the cells | nM-inhibitor | highly selective |  |
| SENP1: purified deSUMOylating enzyme (SUMO specific protease) introduced via the recording pipette or expressed (protein, UniProt Q9P0U3 1-644, looked up) Sentrin-specific protease 1: MDDIADRMRMDAGEVTLVNHNSVFKTHLLPQTGFPEDQLSLSDQQILSSRQGHLDRSFTCSTRSAAYNPSYYSDNPSSDSFLGSGDLRTFGQSANGQWRNSTPSSSSSLQKSRNSRSLYLETRKTSSGLSNSFAGKSNHHCHVSAYEKSFPIKPVPSPSWSGSCRRSLLSPKKTQRRHVSTAEETVQEEEREIYRQLLQMVTGKQFTIAKPTTHFPLHLSRCLSSSKNTLKDSLFKNGNSCASQIIGSDTSSSGSASILTNQEQLSHSVYSLSSYTPDVAFGSKDSGTLHHPHHHHSVPHQPDNLAASNTQSEGSDSVILLKVKDSQTPTPSSTFFQAELWIKELTSVYDSRARERLRQIEEQKALALQLQNQRLQEREHSVHDSVELHLRVPLEKEIPVTVVQETQKKGHKLTDSEDEFPEITEEMEKEIKNVFRNGNQDEVLSEAFRLTITRKDIQTLNHLNWLNDEIINFYMNMLMERSKEKGLPSVHAFNTFFFTKLKTAGYQAVKRWTKKVDVFSVDILLVPIHLGVHWCLAVVDFRKKNITYYDSMGGINNEACRILLQYLKQESIDKKRKEFDTNGWQLFSKKSQEIPQQMNGSDCGMFACKYADCITKDRPINFTQQHMPYFRKRMVWEILHRKLL |  |  |  |  | ameliorated |
